Results from ChEMBL document CHEMBL1201862, “PubChem BioAssay data set” (2004).
Activity calls are given as the source filed them.

Legend:
[1] = biological target: G-protein coupled receptor 35 (Homo sapiens, UniProt Q9HC97); assay: GPR35 antagonists blocking zaprinast-driven arrestin recruitment, primary screen, imaging, U2OS, beta-arrestin-GFP, zaprinast agonist (AID 2058); assay type: functional;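 note: antagonist potency meaning inhibition of agonist-induced arrestin redistribution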
[2] = A cytotoxicity screen of small molecule inhibitors of the PhoP region in Salmonella typhi identified in the primary screen. [Related pubchem assays: 1850, 1864, 1985 ]; assay type: functional
[3] = biological target: DNA (cytosine-5)-methyltransferase 1 (Homo sapiens, UniProt P26358); assay: DNMT1 methyltransferase inhibitors, confirmation, biochemical, fluorescent molecular beacon (AID 602386); assay type: functional
[4] = enhancers of respiration in Yfh1-depleted yeast, dose response, Friedreich's ataxia, plus single-dose screen (AID 1465); assay type: functional;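 note: yeast depleted of Yfh1p frataxin homolog grown on glycerol needing respiration; WST-1 tetrazolium dye reduction as measure of cellular dehydrogenase metabolic activity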
[5] = biological target: Dual specificity tyrosine-phosphorylation-regulated kinase 1A (Rattus norvegicus, UniProt Q63470); assay type: biochemical, Homo sapiens
Beta-galactosidase = Beta-galactosidase (Escherichia coli, UniProt Q8VNN2); assay: beta-galactosidase enzyme inhibitors and activators, dose response, artefact control for CCR6 antagonist project, biochemical, E. coli enzyme, set 3 (AID 504712); assay type: functional
[6] = biological target: 1-phosphatidylinositol 4,5-bisphosphate phosphodiesterase gamma-1 (Homo sapiens, UniProt P19174); assay: Counterscreen for inhibitors of phospholipase C isozymes (PLC-B3): Fluorescence-based biochemical high throughput dose response assay to identify inhibitors of phospholipase C isozymes (PLC-gamma1).
[7] = insulin promoter down-regulators in MIN6 cells, imaging, high-content screening, mouse beta cells (AID 1628); assay type: functional
[8] = biological target: Sphingosine 1-phosphate receptor 1 (Homo sapiens, UniProt P21453); assay type: functional;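 note: Tango beta-arrestin reporter U2OS cells stimulated with S1P near its EC80; inhibitor potency meaning antagonism of receptor activation by the natural agonist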
[9] = biological target: T1, Sentrin-specific protease 8 (Homo sapiens, UniProt Q96LD8); assay type: functional;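 note: kinetic enzyme assay of SENP8 cleaving a Nedd8 protein substrate, dose-response confirmation of screening hits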
T1 sequence (Q96LD8 whole entry): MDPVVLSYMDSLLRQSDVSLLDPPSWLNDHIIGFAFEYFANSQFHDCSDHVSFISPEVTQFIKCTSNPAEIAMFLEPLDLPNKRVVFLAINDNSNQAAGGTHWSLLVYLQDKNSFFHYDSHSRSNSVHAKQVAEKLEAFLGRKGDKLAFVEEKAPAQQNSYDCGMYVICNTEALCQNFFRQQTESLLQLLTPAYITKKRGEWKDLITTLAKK

[10] = biological target: T2, Histone-lysine N-methyltransferase NSD2 (Homo sapiens, UniProt O96028); assay type: biochemical
T2 sequence (O96028 whole entry): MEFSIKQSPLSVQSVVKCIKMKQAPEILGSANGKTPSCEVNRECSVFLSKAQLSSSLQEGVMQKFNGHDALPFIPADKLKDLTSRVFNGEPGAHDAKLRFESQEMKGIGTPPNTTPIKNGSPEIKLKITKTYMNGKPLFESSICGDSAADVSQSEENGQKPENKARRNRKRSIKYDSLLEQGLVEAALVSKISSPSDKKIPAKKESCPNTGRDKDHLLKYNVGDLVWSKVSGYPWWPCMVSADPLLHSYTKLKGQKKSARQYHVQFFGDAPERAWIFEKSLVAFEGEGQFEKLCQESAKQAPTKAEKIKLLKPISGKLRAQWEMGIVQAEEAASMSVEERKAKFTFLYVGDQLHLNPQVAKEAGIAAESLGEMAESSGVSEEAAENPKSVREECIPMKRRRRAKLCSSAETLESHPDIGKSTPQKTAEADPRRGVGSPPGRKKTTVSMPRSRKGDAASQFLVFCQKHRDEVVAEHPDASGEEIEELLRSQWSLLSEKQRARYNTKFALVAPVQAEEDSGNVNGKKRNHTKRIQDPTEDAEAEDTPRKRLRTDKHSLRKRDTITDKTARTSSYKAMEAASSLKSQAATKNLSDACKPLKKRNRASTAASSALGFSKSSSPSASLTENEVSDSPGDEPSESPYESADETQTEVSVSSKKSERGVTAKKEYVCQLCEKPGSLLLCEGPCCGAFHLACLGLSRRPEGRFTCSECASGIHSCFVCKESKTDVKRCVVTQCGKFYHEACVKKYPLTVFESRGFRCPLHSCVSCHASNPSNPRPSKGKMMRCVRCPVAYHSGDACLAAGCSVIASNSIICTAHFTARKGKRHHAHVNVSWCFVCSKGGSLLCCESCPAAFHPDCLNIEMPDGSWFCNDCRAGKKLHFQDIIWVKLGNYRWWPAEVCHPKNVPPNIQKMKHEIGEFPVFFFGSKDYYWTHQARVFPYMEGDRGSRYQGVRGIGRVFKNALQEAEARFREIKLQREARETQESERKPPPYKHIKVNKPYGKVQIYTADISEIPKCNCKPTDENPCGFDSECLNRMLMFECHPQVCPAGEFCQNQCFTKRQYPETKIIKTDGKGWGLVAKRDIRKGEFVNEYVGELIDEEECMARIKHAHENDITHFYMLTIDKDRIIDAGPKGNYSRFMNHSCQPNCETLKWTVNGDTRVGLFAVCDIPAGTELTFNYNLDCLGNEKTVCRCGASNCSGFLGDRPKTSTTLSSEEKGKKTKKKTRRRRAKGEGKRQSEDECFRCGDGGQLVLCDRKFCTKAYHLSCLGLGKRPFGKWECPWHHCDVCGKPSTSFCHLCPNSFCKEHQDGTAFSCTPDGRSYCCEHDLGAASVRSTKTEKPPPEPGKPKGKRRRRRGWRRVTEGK

[11] = biological target: Glucose-6-phosphate 1-dehydrogenase (Homo sapiens, UniProt P11413); assay: human G6PD enzyme inhibitors, dose response, selectivity assay for P. falciparum G6PD inhibitor project, biochemical, fluorescence (AID 504792); assay type: functional
[12] = biological target: T3, Alkaline phosphatase, tissue-nonspecific isozyme (Homo sapiens, UniProt P05186); assay: TNAP enzyme activators, dose response, selectivity assay for mouse IAP activator project, biochemical, TNAP isozyme, mouse IAP uHTS hits (AID 488880); assay type: functional
T3 sequence (P05186 whole entry): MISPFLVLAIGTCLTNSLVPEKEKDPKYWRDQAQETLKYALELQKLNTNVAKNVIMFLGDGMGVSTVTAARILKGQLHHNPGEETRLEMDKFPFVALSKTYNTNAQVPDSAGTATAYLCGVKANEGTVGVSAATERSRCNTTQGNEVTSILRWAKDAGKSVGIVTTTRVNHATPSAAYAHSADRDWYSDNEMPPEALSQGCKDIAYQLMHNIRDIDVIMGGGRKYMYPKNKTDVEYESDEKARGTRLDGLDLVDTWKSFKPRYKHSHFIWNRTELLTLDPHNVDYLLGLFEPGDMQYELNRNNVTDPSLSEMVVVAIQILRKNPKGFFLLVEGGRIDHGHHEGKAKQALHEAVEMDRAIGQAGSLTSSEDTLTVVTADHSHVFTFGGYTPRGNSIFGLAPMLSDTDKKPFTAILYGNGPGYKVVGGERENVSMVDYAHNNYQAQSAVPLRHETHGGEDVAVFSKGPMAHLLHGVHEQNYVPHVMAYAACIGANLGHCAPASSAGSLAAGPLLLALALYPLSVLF

Chain of 1-phosphatidylinositol 4,5-bisphosphate phosphodiesterase gamma-1 (P19174 whole entry): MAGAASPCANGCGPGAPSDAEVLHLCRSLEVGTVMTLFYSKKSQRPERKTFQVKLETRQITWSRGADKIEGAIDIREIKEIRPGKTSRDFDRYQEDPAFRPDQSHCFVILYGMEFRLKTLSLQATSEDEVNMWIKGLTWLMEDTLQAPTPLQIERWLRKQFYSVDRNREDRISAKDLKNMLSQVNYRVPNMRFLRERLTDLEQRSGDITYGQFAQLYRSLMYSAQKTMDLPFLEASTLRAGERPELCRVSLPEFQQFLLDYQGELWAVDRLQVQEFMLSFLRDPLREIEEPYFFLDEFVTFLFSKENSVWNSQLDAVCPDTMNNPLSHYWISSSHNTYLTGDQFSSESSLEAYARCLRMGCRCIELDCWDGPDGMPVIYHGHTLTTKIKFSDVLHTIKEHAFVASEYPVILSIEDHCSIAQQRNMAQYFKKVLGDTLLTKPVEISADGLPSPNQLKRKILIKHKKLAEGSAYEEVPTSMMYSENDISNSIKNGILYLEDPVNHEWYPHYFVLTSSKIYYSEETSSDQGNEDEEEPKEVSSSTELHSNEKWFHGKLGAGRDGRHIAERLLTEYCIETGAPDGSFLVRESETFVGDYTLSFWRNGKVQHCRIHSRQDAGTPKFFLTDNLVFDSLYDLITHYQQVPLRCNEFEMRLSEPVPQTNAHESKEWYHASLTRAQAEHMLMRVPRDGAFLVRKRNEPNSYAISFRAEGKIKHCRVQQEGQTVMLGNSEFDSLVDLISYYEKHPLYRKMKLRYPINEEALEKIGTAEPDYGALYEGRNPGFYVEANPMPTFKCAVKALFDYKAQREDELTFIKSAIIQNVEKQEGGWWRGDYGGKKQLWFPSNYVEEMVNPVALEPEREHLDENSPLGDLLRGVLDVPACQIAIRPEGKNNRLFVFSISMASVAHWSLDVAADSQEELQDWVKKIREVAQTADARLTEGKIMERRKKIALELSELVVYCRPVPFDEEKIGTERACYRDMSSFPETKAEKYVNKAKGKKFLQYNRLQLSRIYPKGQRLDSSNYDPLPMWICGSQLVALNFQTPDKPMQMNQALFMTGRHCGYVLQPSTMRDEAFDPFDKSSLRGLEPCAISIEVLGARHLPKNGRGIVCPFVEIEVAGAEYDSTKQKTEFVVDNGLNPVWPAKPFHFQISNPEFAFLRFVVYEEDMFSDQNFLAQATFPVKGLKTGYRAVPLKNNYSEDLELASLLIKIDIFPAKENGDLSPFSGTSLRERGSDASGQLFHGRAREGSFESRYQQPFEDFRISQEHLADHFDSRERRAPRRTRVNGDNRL
Chain of Sphingosine 1-phosphate receptor 1 (P21453 whole entry): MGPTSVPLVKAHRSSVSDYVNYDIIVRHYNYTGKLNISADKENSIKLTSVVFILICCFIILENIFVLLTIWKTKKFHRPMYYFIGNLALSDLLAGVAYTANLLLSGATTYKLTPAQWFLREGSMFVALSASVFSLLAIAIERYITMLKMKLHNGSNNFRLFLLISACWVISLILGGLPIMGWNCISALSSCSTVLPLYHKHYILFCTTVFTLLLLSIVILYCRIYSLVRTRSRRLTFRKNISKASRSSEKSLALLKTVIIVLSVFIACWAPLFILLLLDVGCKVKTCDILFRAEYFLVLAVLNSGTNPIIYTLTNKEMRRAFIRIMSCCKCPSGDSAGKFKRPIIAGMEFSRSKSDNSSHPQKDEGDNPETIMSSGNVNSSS
Chain of G-protein coupled receptor 35 (Q9HC97 whole entry): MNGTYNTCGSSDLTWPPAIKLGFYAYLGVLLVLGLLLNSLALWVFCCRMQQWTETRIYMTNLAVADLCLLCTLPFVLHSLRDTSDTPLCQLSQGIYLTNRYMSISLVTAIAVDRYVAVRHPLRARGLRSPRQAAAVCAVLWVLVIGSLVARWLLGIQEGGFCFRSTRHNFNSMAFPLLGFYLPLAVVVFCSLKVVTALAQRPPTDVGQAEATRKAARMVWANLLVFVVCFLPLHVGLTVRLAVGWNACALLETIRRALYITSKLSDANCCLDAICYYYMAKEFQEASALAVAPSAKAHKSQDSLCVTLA
Chain of DNA (cytosine-5)-methyltransferase 1 (P26358 whole entry): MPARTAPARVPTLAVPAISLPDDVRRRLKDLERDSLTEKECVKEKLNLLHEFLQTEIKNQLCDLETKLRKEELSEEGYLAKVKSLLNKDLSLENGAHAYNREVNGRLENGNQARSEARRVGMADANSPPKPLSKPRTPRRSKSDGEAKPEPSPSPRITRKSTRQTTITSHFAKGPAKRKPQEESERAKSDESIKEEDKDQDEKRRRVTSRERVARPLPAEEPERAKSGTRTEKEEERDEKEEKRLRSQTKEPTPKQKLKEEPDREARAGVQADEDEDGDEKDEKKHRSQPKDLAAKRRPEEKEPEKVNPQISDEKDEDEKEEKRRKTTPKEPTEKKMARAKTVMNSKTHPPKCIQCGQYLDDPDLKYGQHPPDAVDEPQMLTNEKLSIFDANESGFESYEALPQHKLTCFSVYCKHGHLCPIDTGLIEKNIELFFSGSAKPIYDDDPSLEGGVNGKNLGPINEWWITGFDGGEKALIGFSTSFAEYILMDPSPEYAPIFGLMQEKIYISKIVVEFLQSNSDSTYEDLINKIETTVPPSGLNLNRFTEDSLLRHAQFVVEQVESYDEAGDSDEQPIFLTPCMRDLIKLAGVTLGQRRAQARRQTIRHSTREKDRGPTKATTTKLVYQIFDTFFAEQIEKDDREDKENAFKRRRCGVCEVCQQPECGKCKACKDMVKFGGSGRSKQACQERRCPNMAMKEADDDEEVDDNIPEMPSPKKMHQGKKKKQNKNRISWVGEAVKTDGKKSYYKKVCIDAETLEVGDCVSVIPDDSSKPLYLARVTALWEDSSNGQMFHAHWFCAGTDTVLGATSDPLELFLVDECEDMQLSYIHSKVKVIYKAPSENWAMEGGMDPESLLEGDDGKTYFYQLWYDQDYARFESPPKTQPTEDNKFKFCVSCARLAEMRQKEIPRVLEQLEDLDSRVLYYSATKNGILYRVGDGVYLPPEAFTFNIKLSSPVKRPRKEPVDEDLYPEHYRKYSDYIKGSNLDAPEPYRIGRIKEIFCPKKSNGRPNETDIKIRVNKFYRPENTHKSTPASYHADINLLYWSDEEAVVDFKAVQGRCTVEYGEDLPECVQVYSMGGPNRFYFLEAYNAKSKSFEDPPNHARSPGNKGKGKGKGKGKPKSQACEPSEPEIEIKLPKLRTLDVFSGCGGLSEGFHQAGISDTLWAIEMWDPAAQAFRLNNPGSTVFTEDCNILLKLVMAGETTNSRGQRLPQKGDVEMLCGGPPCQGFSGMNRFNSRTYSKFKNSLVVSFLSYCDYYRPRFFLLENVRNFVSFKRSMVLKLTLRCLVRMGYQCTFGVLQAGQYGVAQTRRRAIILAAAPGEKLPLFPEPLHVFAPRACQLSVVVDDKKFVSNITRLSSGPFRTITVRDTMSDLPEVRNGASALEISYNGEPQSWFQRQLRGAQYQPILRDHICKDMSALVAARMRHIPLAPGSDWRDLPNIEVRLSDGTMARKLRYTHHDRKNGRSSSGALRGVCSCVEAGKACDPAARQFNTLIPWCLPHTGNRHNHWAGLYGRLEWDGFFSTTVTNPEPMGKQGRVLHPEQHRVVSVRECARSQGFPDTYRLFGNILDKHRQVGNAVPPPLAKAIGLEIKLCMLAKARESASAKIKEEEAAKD
Chain of Glucose-6-phosphate 1-dehydrogenase (P11413 whole entry): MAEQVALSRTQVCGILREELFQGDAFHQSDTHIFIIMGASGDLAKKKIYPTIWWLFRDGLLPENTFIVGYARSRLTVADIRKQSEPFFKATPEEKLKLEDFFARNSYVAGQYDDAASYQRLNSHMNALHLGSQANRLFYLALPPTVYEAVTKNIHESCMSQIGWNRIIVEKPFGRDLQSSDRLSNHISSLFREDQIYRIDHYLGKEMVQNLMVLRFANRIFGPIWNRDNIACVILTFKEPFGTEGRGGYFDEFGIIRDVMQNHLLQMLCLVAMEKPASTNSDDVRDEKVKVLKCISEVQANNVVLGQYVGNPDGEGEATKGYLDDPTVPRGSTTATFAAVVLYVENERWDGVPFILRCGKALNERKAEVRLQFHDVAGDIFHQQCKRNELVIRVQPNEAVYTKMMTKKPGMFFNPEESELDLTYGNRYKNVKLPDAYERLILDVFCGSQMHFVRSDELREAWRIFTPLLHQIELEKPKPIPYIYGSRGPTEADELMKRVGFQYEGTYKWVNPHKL

In the case of `CCc1nnc(NS(=O)(=O)c2ccc(NC(=S)NC(=O)/C=C/c3ccc(C(C)C)cc3)cc2)s1`, the IC50 [1] is reported as 1.59 µM (active), the EC50 [2] is reported as > 50 µM (active) and the IC50 [3] is reported as 6.16 µM (active).

In the case of `O=C1C(Nc2ccc(O)cc2)=C/C(=N/S(=O)(=O)c2cccs2)c2ccccc21`, the EC50 [4] is reported as > 100 µM (active), the AC50 [5] is reported as 0.883 µM (active) and the IC50 (Beta-galactosidase) is reported as > 66.6 µM (inactive). The IC50 [6] was 29.3 µM (inactive), the IC50 [7] was 0.975 µM (active) and the IC50 [8] was 4.23 µM (active).

With `COC(=O)C(O)(c1c(C)[nH]n(-c2ccccc2)c1=O)C(F)(F)F` (stereo not drawn) the IC50 [9] was 1.15 µM (active).

With `COc1ccc(S(=O)(=O)Nc2cc(SCC(=O)O)c(O)c3ccccc23)cc1` the AC50 [10] was 3.56 µM (active) and the IC50 [11] was 21.1 µM (inactive).

In the case of `CC1CC(=O)c2c(cc3c(-c4c(O)cc(O)c5c(O)c6c(cc45)OC(C)CC6=O)c(O)cc(O)c3c2O)O1` (stereo not drawn) [CEPHALOCHROMIN], the EC50 [12] is reported as 26.7 µM (active).
